The target in assay [1] is T1, factor VIIa (Homo sapiens, UniProt P08709).
T1 sequence (P08709 213-466 limits assumed): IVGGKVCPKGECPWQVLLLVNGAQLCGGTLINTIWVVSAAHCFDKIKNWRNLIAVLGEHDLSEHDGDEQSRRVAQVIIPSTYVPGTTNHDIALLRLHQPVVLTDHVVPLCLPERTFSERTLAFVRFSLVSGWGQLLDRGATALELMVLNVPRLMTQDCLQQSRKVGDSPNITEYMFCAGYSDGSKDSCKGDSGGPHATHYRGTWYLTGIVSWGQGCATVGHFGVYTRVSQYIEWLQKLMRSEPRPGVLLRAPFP
T1 sequence (P08709 61-212 partner limits assumed): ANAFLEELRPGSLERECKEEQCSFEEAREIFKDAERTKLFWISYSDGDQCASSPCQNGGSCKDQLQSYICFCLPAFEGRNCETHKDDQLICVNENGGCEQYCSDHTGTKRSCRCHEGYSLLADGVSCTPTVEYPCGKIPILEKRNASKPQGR
As to the kind of experiment: inhibition of factor VIIa. The class given is biochemical. The source says: The inhibition of factor VIIa by the compounds according to the invention and the measurement of the anticoagulant and antithrombotic activity can be determined by conventional in-vitro or in-vivo methods. A conventional method for the measurement of the inhibition of factor VIIa is described, for example, by H. F. Ronning et al. in Thrombosis Research 1996, 84, 73-81.

Assay [2] concerns the target factor Xa (Homo sapiens, UniProt P00742). In words: inhibition of factor Xa. The class given is biochemical. The text has this: The inhibition of factor Xa by the compounds according to the invention and the measurement of the anticoagulant and antithrombotic activity can be determined by conventional in-vitro or in-vivo methods. A suitable method is described, for example, by J. Hauptmann et al. in Thrombosis and Haemostasis 1990, 63, 220-223.
The inhibition of factor Xa can be measured, for example, by the method of T. Hara et al. in Thromb. Haemostas. 1994, 71, 314-319.

Sequence of factor Xa (P00742 235-488 limits assumed): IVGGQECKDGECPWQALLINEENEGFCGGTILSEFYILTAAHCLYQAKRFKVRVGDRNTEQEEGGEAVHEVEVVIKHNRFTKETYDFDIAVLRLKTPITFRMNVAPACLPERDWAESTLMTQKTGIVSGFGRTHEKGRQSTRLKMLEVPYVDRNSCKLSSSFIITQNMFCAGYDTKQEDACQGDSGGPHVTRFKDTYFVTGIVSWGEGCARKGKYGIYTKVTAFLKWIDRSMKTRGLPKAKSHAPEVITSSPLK
Sequence of factor Xa (P00742 41-179 partner limits assumed): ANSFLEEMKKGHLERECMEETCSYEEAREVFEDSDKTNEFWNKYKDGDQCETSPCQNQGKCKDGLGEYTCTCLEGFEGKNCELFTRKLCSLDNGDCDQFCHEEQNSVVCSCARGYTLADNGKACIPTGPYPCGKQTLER

Regarding `CSCCC(NC(=O)Nc1ccccc1)C(=O)Nc1ccc(-c2ccccc2S(C)(=O)=O)cc1` (centres unmarked) [2-(3-phenylureido)-N-(2′-methylsulfonylbiphenyl-4-yl)-4-methylsulfanylbutyramide], the IC50 is 1800 nM in assay [1] and 2300 nM in assay [2]. In the same order, the values of `CS(=O)(=O)c1ccccc1-c1ccc(NC(=O)C(Cc2cnc[nH]2)NC(=O)Nc2ccccc2)cc1` (centres unmarked) [2-(3-phenylureido)-N-(2′-methylsulfonylbiphenyl-4-yl)-3-(3H-imidazol-4-yl)propionamide] are 2000 nM and 2000 nM.

In assay [2], `O=C(Nc1ccc(Cl)cc1)N[C@@H](C(=O)NCC1CCN(c2ccncc2)CC1)c1ccccc1` [(R)-2-[3-(4-chlorophenyl)ureido]-N-[1-(pyridin-4-yl)piperidin-4-ylmethyl]-2-phenylacetamide] yielded an IC50 of 55 nM. With `O=C(Nc1ccc(Cl)cc1)OC(C(=O)NCC1CCN(c2ccncc2)CC1)c1ccccc1` (centres unmarked) [2-[N-(4-chlorophenyl)-carbamoyloxy]-N-[1-(pyridin-4-yl)piperidin-4-ylmethyl]-2-phenylacetamide], in assay [2], the IC50 came out at 71 nM. Regarding `CS(=O)(=O)c1ccccc1-c1ccc(NC(=O)C(Cc2cccs2)NC(=O)Nc2ccccc2)cc1` (centres unmarked) [2-(3-phenylureido)-N-(2′-methylsulfonylbiphenyl-4-yl)-3-(thiophen-2-yl)-propionamide], the IC50 turned out to be 750 nM in assay [1] and 1200 nM in assay [2].

For the molecule `CS(=O)(=O)c1ccccc1-c1ccc(NC(=O)[C@@H](Cc2ccccc2)NC(=O)Nc2ccc(Cl)cc2)cc1` [(R)-2-[3-(4-chlorophenyl)ureido]-N-(2′-methylsulfonylbiphenyl-4-yl)-3-phenylpropionamide], the IC50 in assay [1] came out at 65 nM; in assay [2] it was 86 nM. The corresponding values for `CCCC[C@@H](NC(=O)Nc1ccccc1)C(=O)Nc1ccc(-c2ccccc2S(C)(=O)=O)cc1` [(R)-2-(3-phenylureido)-N-(2′-methylsulfonylbiphenyl-4-yl)hexanoamide] are 170 nM and 3000 nM.

`CC(C)C[C@@H](NC(=O)Nc1ccc(Cl)cc1)C(=O)NCC1CCN(c2ccncc2)CC1` [(R)-2-[3-(4-chlorophenyl)ureido]-N-[1-(pyridin-4-yl)piperidin-4-ylmethyl]-4-methylvaleramide] displayed a 50% inhibitory concentration (IC50) in assay [2] of 410 nM. On to `CS(=O)(=O)c1ccccc1-c1ccc(NC(=O)C(NC(=O)Nc2ccccc2)c2ccccc2)cc1` (centres unmarked) [2-(3-phenylureido)-N-(2′-methylsulfonylbiphenyl-4-yl)-2-phenyl-acetamide], for which the IC50 in assay [1] turned out to be 2000 nM; in assay [2], 2300 nM. The corresponding values for `CCC[C@@H](NC(=O)Nc1ccccc1)C(=O)Nc1ccc(-c2ccccc2S(C)(=O)=O)cc1` [(R)-2-(3-phenylureido)-N-(2′-methylsulfonylbiphenyl-4-yl)pentanoamide] are 930 nM and 2000 nM. In the same order, the values of `CCC[C@H](NC(=O)Nc1ccccn1)C(=O)Nc1ccc(-c2ccccc2S(C)(=O)=O)cc1` [(S)-2-(3-pyridin-2-ylureido)-N-(2′-methylsulfonylbiphenyl-4-yl)-pentanoamide] are 2700 nM and 3800 nM. In the case of `CCCC(NC(=O)Nc1ccc(Cl)cc1)C(=O)NCC1CCN(c2ccncc2)CC1` (centres unmarked) [2-[3-(4-chlorophenyl)ureido]-N-[1-(pyridin-4-yl)piperidin-4-ylmethyl]-valeramide], half-maximal inhibition in assay [2] (IC50) was put at 580 nM.

For orientation: IC50 means the midpoint of a concentration-inhibition curve.

The values above are taken from patent US20050137230A1, “Carboxamide derivatives” (priority 2000, published 2005).
